From patent publication US20230247997A1 (published 2023) come the findings set out here.

In general, melting point refers to the temperature of the solid-liquid transition. Compound `CCSc1nc(-c2ccc(OC)cc2)ns1` displayed a melting point of 54 to 56 °C.

The compound `CCSc1nc(-c2ccncc2)ns1` gave a melting point of 49 to 50 °C.

Turning to `COc1nc(-c2ccccc2)nc(-c2ccccc2)n1`, the melting point was in the range of 109 to 111 °C.

`CSc1nc(-c2ccc(Cl)cc2)ns1` gave a melting point of 105 to 107 °C.

The compound `CCSc1nc(-c2ccc([N+](=O)[O-])cc2)ns1` displayed a melting point of 103 to 104 °C.

`CCSc1nc(OC)ns1` showed a melting point of 35 to 37 °C.

`CCSC1=NC(=CC(N)=O)NS1` returned a melting point of 140 to 142 °C.

With `COc1nc(-c2ccc(Cl)cc2)ns1`, the melting point lay within 137 to 139 °C.

For the compound `CCSc1nc(-c2ccc(Cl)cc2)ns1`, the melting point was in the range of 44 to 45 °C.

The compound `COc1nc(-c2ccc(Cl)cc2)nc(-c2ccc(Cl)cc2)n1` showed a melting point of 192 to 194 °C.

The compound `COc1cccc(-c2nc(OC)nc(-c3cccc(OC)c3)n2)c1` showed a melting point of 126 to 128 °C.

In turn, `CCSc1nc(N(C)C)ns1` registered a melting point of 116 to 118 °C.

`CCSc1nc(-c2cnccn2)ns1`: the melting point was in the range of 60 to 62 °C.

On to `COc1nc(-c2ccc(F)cc2)nc(-c2ccc(F)cc2)n1`, for which the melting point lay within 173 to 174 °C.

`CCSc1nc(-c2ccc(F)cc2)ns1`: the melting point was in the range of 35 to 36 °C.

`CCSc1nc(-c2ccc(Br)cc2)ns1` had a melting point of 36 to 37 °C.

`COc1cccc(-c2nsc(OC)n2)c1` yielded a melting point of 73 to 75 °C.

`CCOC(=O)C=C1N=C(SCC)SN1` showed a melting point of 128 to 129 °C.

Consider `COc1nc(-c2ccc([N+](=O)[O-])cc2)ns1`, for which the melting point was in the range of 138 to 140 °C.
